Experimental data: the NIST ThermoML archive (doi:10.1021/je700260f)

Settings: 323.15 K, Liquid, Vibrating tube method

FC(C(F)(F)F)C(F)(F)F [1,1,1,2,3,3,3-heptafluoropropane]
Settings	mass density [kg/m3]
15907 kPa	1399.8
15931 kPa	1400
15952 kPa	1399.9
15979 kPa	1400.1
15995 kPa	1400.2
16018 kPa	1400.3
16047 kPa	1400.5
16072 kPa	1400.6
16209 kPa	1401.3
16238 kPa	1401.5
16257 kPa	1401.7
16276 kPa	1401.7
16300 kPa	1401.9
16318 kPa	1402
16339 kPa	1402.1
16364 kPa	1402.3
16385 kPa	1402.4
16407 kPa	1402.6
16429 kPa	1402.6
16451 kPa	1402.8
16474 kPa	1402.8
16502 kPa	1403
16520 kPa	1403.2
16544 kPa	1403.3
16566 kPa	1403.2
16584 kPa	1403.6
16603 kPa	1403.7
16629 kPa	1403.6
16649 kPa	1403.9
16677 kPa	1404.1
16763 kPa	1404.5
16808 kPa	1404.8
16827 kPa	1404.9
16854 kPa	1405.1
16872 kPa	1405
16898 kPa	1405.2
16920 kPa	1405.3
16947 kPa	1405.5
16978 kPa	1405.6
16998 kPa	1405.8
17027 kPa	1406
17050 kPa	1406
17073 kPa	1406.2
17097 kPa	1406.2
17120 kPa	1406.4
17141 kPa	1406.4
17170 kPa	1406.7
17197 kPa	1406.8
17220 kPa	1406.9
17330 kPa	1407.5
17378 kPa	1407.6
17898 kPa	1410.5
17952 kPa	1410.9
17976 kPa	1411.1
17998 kPa	1411.2
18024 kPa	1411.4
18049 kPa	1411.4
18081 kPa	1411.6
18105 kPa	1411.8
18129 kPa	1411.7
18160 kPa	1412
18184 kPa	1412.1
18240 kPa	1412.4
18317 kPa	1412.9
18547 kPa	1414
18567 kPa	1414.1
18596 kPa	1414.3
18614 kPa	1414.3
18862 kPa	1415.5
18885 kPa	1415.8
18905 kPa	1415.8
18929 kPa	1416
18952 kPa	1416.1
18981 kPa	1416.2
19007 kPa	1416.4
19162 kPa	1417
19197 kPa	1417.4
20153 kPa	1422
20175 kPa	1422.2
20203 kPa	1422.2
20225 kPa	1422.4
20251 kPa	1422.6
20283 kPa	1422.7
20313 kPa	1422.8
20340 kPa	1422.8
20370 kPa	1423.2
20404 kPa	1423.3
20429 kPa	1423.4
20481 kPa	1423.6
21768 kPa	1429.8
21806 kPa	1430
21829 kPa	1430.1
21855 kPa	1430
21886 kPa	1430.3
21913 kPa	1430.5
21936 kPa	1430.6
21971 kPa	1430.7
22991 kPa	1435.4
23635 kPa	1438.4
23664 kPa	1438.4
23690 kPa	1438.6
23714 kPa	1438.6
23750 kPa	1438.7
